The series has as its target IRF4. The note with it: ASO.

In the OligoGym collection one finds target mRNA inhibition data, which are given here for 31 sequences.

“And” between values parts separate entries of the source, which are not always exact repeats. Equal entries are not always repeated. After the bases stand the sugars from the 5' end (letter, count) and the backbone: PS all phosphorothioate, else s phosphorothioate and o phosphodiester by linkage. Methylation of C is not given here. e = 2'-O-(2-methoxyethyl) (MOE); k = constrained ethyl (cEt); d = 2'-deoxy (DNA)

With GATTAATTCTCCTATG (sugars k3 d10 k3, PS), the target mRNA inhibition (MM.1R, 1 µM) is -19%.
On to “GATTATATACTGGTTG (sugars kdddddddddkekeke, PS)”, for which, for the setting “MM.1R, 1 µM”, the target mRNA inhibition turned out to be 12%.
In the case of GATTTATGTTCCTTAA (sugars k3 d10 k3, PS), the target mRNA inhibition (SK-MEL-28, 4 µM) came to 47%.
Turning to GATTTCCGGGTGTGGC (sugars k3 d10 k3, PS), the target mRNA inhibition was 14% (MM.1R, 0.0625 µM); -11% (MM.1R, 0.25 µM); 33% (MM.1R, 4 µM).
Consider GCAAAACCAGTACAGT (sugars k3 d10 k3, PS), for which the target mRNA inhibition (MM.1R, 0.0625 µM) was 3%; the target mRNA inhibition (MM.1R, 0.074 µM) turned out to be 17%; the target mRNA inhibition (MM.1R, 0.222 µM) is 0%; the target mRNA inhibition (MM.1R, 0.25 µM) is 6%; the target mRNA inhibition (MM.1R, 0.666 µM) was found to be 4%; the target mRNA inhibition (MM.1R, 1 µM) came out at 11%. Further, the target mRNA inhibition runs as follows: (MM.1R, 2 µM) 13%; (MM.1R, 4 µM) 26%; (SK-MEL-28, 4 µM) 58%.
Consider GCAAAACGCAGAGCCA (sugars k3 d10 k3, PS), for which, where the note is “SK-MEL-28, 4 µM”, the target mRNA inhibition amounted to 57%.
For GCAAACGACAAGTGGC (sugars k3 d10 k3, PS), the target mRNA inhibition (MM.1R, 1 µM) is -15%.
With GCAAAGCAAGTGTCTA (sugars k3 d10 k3, PS), the target mRNA inhibition (SK-MEL-28, 4 µM) worked out at 43%.
Regarding GCAACACGGGAATTTC (sugars k3 d10 k3, PS), under “SK-MEL-28, 4 µM”, the target mRNA inhibition was 66% and 74%.
Regarding GCAATCTTAACCTGGA (sugars k3 d10 k3, PS), the target mRNA inhibition was -3% and 3% (MM.1R, 0.0625 µM); 8% (MM.1R, 0.25 µM); 37% and 38% (MM.1R, 1 µM); 70% and 71% (MM.1R, 4 µM).
Take GCACACGCAGCCTCTA (sugars k3 d10 k3, PS): the target mRNA inhibition (SK-MEL-28, 4 µM) was found to be 5%.
As to GCACAGCCCTTGGTTA (sugars k3 d10 k3, PS), the target mRNA inhibition (MM.1R, 1 µM) came out at 3%.
With GCACAGTCTCTTTTTA (sugars k3 d10 k3, PS), the target mRNA inhibition (SK-MEL-28, 4 µM) turned out to be 36%.
Still for that read-out and setting: with GCACAGTCTTTTCGCA (sugars k3 d10 k3, PS) the figure was 20%.
Regarding “GCACATCAATGTTTTA (sugars k2 d9 e3 k2, PS)”, the target mRNA inhibition (MM.1R, 1 µM) was found to be 20%.
In the case of GCACATCAATGTTTTA (sugars k3 d10 k3, PS), the target mRNA inhibition (SK-MEL-28, 4 µM) came out at 67%.
With “GCACATCAATGTTTTA (sugars kdddddddddkekeke, PS)”, the target mRNA inhibition (MM.1R, 1 µM) was 17% and 15%.
With “GCACATCAATGTTTTA (sugars kkdddddddddkekek, PS)”, where the note is “MM.1R, 1 µM”, the target mRNA inhibition was 18% and 15%.
Regarding GCACGAGGAAGCATAG (sugars k3 d10 k3, PS), for the setting “SK-MEL-28, 4 µM”, the target mRNA inhibition came out at 58%.
For GCACGGAGAGGGCGAG (sugars k3 d10 k3, PS), the target mRNA inhibition (MM.1R, 1 µM) was 4%.
On to GCAGAAACAGCCCACT (sugars k3 d10 k3, PS), for which the target mRNA inhibition (SK-MEL-28, 4 µM) came to 41%.
Take GCAGAACGAGGTAAAT (sugars k3 d10 k3, PS): the target mRNA inhibition (SK-MEL-28, 4 µM) was 62%.
For the sequence GCAGGGACCGCGCCAG (sugars k3 d10 k3, PS), under “MM.1R, 1 µM”, the target mRNA inhibition came to 10%.
Turning to “GCAGTGATGTCAGGTT (sugars kkdddddddddkekek, PS)”, the target mRNA inhibition was found to be 14% (MM.1R, 0.074 µM); 37% (MM.1R, 0.222 µM); 60% (MM.1R, 0.666 µM); 69% (MM.1R, 1 µM); 81% (MM.1R, 2 µM).
In the case of “GCAGTGATGTCAGGTT (sugars kkkdddddddddkeke, PS)”, for the setting “MM.1R, 1 µM”, the target mRNA inhibition was found to be 56%.
Turning to GCAGTTCTTAATATCA (sugars k3 d10 k3, PS), where the note is “SK-MEL-28, 4 µM”, the target mRNA inhibition worked out at 60%.
Still for that read-out and setting: with GCATAGAGTCACCTGG (sugars k3 d10 k3, PS) the figure was 39%.
Regarding GCATAGGCATCCTTCC (sugars k3 d10 k3, PS), the target mRNA inhibition (MM.1R, 1 µM) turned out to be 8%.
Take GCATGCAAGCCCGTTA (sugars k3 d10 k3, PS): the target mRNA inhibition (SK-MEL-28, 4 µM) is -1%.
As for GCATGGATCCTGAGAG (sugars k3 d10 k3, PS), the target mRNA inhibition (MM.1R, 1 µM) turned out to be 11%.
Regarding GCATTATCTACCTCAG (sugars k3 d10 k3, PS), under “SK-MEL-28, 4 µM”, the target mRNA inhibition was 69%.
